Test results as given in patent US20080188481A1 (priority 2002, published 2008).
pEC50: −log10 of the molar value.

System: HIV-1 single-round infectious reporter virus
Assay: Single-round infectious HIV-1 luciferase reporter virus infection of HeLa CD4 cells (antiviral EC50)
Assay type: cell-based
Details: Human immunodeficiency virus 1, HeLa, 72 h, read-out: EC50 Group from Table 1
Method in brief: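 HeLa CD4 cells infected with env-pseudotyped, luciferase-reporter single-round HIV-1 (MOI ~0.01) in presence of compound (final ≤10 μM), harvested 72 h at 37 °C. Luciferase luminescence expressed as percent inhibition versus no-compound control; EC50 from 10-concentration four-parameter logistic fit.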

`COc1cnc(-n2ccnn2)c2[nH]cc(C(=O)C(=O)N3CCC(=C(c4ccccc4)c4nnco4)CC3)c12` [Example 132, 1-[4-(1-Phenyl-1-(1,3,4-oxadiazol-2-yl)-methylene)-piperidin-1-yl]-2-[4-methoxy-7-(1,2,3-triazol-1-yl)-6-azaindol-3-yl]-ethane-1,2-dione] showed a pEC50 of over 6.00.
In the case of `COc1cnc(-n2cnc(C)n2)c2[nH]cc(C(=O)C(=O)N3CCC(=C(c4ccccc4)c4nnc(C5CCC5)o4)CC3)c12` [Example 133, 1-[4-(1-Phenyl-1-(5-cyclobutyl-1,3,4-oxadiazol-2-yl)-methylene)-piperidin-1-yl]-2-[4-methoxy-7-(3-methyl-1,2,4-triazol-1-yl)-6-azaindol-3-yl]-ethane-1,2-dione], the pEC50 was over 6.00.
`COc1cnc(-n2cnc(C)n2)c2[nH]cc(C(=O)C(=O)N3CCC(=C(c4ccccc4)c4nnc(C(C)(C)C)o4)CC3)c12` [Example 134, 1-[4-(1-Phenyl-1-(5-tert-butyl-1,3,4-oxadiazol-2-yl)-methylene)-piperidin-1-yl]-2-[4-methoxy-7-(3-methyl-1,2,4-triazol-1-yl)-6-azaindol-3-yl]-ethane-1,2-dione] showed a pEC50 of over 6.00.
For `COc1cnc(-n2cnc(C)n2)c2[nH]cc(C(=O)C(=O)N3CCC(=C(c4ccccc4)c4nnc(-c5ccccc5)o4)CC3)c12` [Example 135, 1-[4-(1-Phenyl-1-(5-phenyl-1,3,4-oxadiazol-2-yl)-methylene)-piperidin-1-yl]-2-[4-methoxy-7-(3-methyl-1,2,4-triazol-1-yl)-6-azaindol-3-yl]-ethane-1,2-dione], the pEC50 was under 6.30.
`COc1cnc(-n2cnc(C)n2)c2[nH]cc(C(=O)C(=O)N3CCC(=C(c4ccccc4)c4cn(C)cn4)CC3)c12` [Example 136, 1-[4-(1-Phenyl-1-(1-methylimidazol-4-yl)-methylene)-piperidin-1-yl]-2-(4-methoxy-7-(3-methyl-1,2,4-triazol-1-yl)-6-azaindol-3-yl)-ethane-1,2-dione] showed a pEC50 of over 6.00.
Compound `COc1cnc(-n2cc(C)nn2)c2[nH]cc(C(=O)C(=O)N3CCC(=C(c4ccccc4)c4cc(C)n[nH]4)CC3)c12` [Example 137, 1-[4-(1-Phenyl-1-(3-methylpyrazol-5-yl)-methylene)-piperidin-1-yl]-2-(4-methoxy-7-(4-methyl-1,2,3-triazol-1-yl)-6-azaindol-3-yl)-ethane-1,2-dione] has a pEC50 of over 6.00.
Work on `COc1cnc(-n2cc(C)nn2)c2[nH]cc(C(=O)C(=O)N3CCC(=C(c4ccccc4)c4nnc(C)o4)CC3)c12` [Example 138, 1-[4-(1-Phenyl-1-(5-methyl-1,3,4-oxadiazol-2-yl)-methylene)-piperidin-1-yl]-2-(4-methoxy-7-(4-methyl-1,2,3-triazol-1-yl)-6-azaindol-3-yl)-ethane-1,2-dione] yielded a pEC50 of over 6.00.
Work on `COc1cnc(-c2nnc(C)[nH]2)c2[nH]cc(C(=O)C(=O)N3CCC(=C(c4ccccc4)c4nnc(C)o4)CC3)c12` [Example 139, 1-[4-(1-Phenyl-1-(5-methyl-1,3,4-oxadiazol-2-yl)-methylene)-piperidin-1-yl]-2-(4-methoxy-7-(5-methyl-1,3,4-triazol-2-yl)-6-azaindol-3-yl)-ethane-1,2-dione] yielded a pEC50 of over 6.00.
`COc1cnc(-c2cc(C)n[nH]2)c2[nH]cc(C(=O)C(=O)N3CCC(=C(c4ccccc4)c4nnc(C)o4)CC3)c12` [Example 140, 1-[4-(1-Phenyl-1-(5-methyl-1,3,4-oxadiazol-2-yl)-methylene)-piperidin-1-yl]-2-(4-methoxy-7-(5-methylpyrazole-3-yl)-6-azaindol-3-yl)-ethane-1,2-dione] gave a pEC50 of over 6.00.
In the case of `COc1cnc(-n2cnc(C)n2)c2[nH]cc(C(=O)C(=O)N3CCC(=C(c4ccccc4)c4cnn(C)c4)CC3)c12` [Example 141, 1-[4-(1-Phenyl-1-(1-methylpyrazol-4-yl)-methylene)-piperidin-1-yl]-2-(4-methoxy-7-(3-methyl-1,2,4-triazol-1-yl)-6-azaindol-3-yl)-ethane-1,2-dione], the pEC50 was over 6.00.
Compound `COc1cnc(-n2ccnn2)c2[nH]cc(C(=O)C(=O)N3CCC(=C(c4ccccc4)c4cnn(C)c4)CC3)c12` [Example 142, 1-[4-(1-Phenyl-1-(1-methylpyrazol-4-yl)-methylene)-piperidin-1-yl]-2-(4-methoxy-7-(1,2,3-triazol-1-yl)-6-azaindol-3-yl)-ethane-1,2-dione] has a pEC50 of over 6.00.
With `COc1cnc(-n2cnc(C)n2)c2[nH]cc(C(=O)C(=O)N3CCC(=C(c4ccccc4)c4cnn(Cc5ccccc5)c4)CC3)c12` [Example 143, 1-[4-(1-Phenyl-1-(1-benzylpyrazol-4-yl)-methylene)-piperidin-1-yl]-2-(4-methoxy-7-(3-methyl-1,2,4-triazol-1-yl)-6-azaindol-3-yl)-ethane-1,2-dione] the pEC50 was over 6.00.
`COc1cnc(-n2ccnn2)c2[nH]cc(C(=O)C(=O)N3CCC(=C(c4ccccc4)c4cnn(Cc5ccccc5)c4)CC3)c12` [Example 144, 1-[4-(1-Phenyl-1-(1-benzylpyrazol-4-yl)-methylene)-piperidin-1-yl]-2-(4-methoxy-7-(1,2,3-triazol-1-yl)-6-azaindol-3-yl)-ethane-1,2-dione] showed a pEC50 of over 6.00.
